Measurements published in PMC12277314, “Design, synthesis, and anti-inflammatory potential of PROTAC drug molecules based on fondaparinux sodium” (Frontiers in Bioengineering and Biotechnology, 2025).
pKd: −log10 of the molar value. “Also recorded” adds a separate entry of the source.

What was measured:
[1] = test system: colonic TNF-α and IL-1β levels; set-up: method as in Xu et al., 2024; conditions: murine colitis model; ref Xu et al., 2024; cited from earlier work
[2] = test system: IL-1β release, peripheral blood mononuclear cells (PBMCs); experiment: LPS-induced IL-1β release in PBMCs (ELISA); assay type: cell-based, Human; conditions: 100 nM-10 μM
Description: (§1) Human PBMCs were isolated from buffy coats (procured from Uppsala University Hospital, Sweden) using Ficoll density gradient centrifugation and stored at −150°C. Thawed PBMCs were cultured in Dulbecco’s Modified Eagle Medium (DMEM) supplemented with 10% fetal bovine serum (FBS) and 5% PeSt in a CO2 incubator. Cells were seeded in 24-well plates (0.5–1 × 10^6 cells/well in 1 mL medium). PROTAC analogs and FS were added at 10 μM, 1 μM, and 100 nM. Two setups were employed: one receiving only the compounds, and another in which LPS (20 ng/mL) was added 2 h after compound treatment. After 24 h, supernatants were collected for cytokine quantification by ELISA.
(§2) All quantitative data are presented as mean ± SD. Sample size for each assay was n = 3 biological replicates. For multi-group comparisons, one-way ANOVA followed by Tukey’s post hoc test was used; for two-group comparisons, two-tailed, unpaired Student’s t-test was applied. P < 0.05 was considered significant.

IL-6 = IL-6 (Homo sapiens, UniProt P05231); experiment: SPR binding to immobilized IL-6; conditions: CM5 chip, 1:1 binding model, 0.38-12.50 µM analyte
Description: (§3) SPR was used to evaluate the binding affinity between the PROTAC molecules and the target proteins. Target proteins CCL5 and IL-6 were immobilized on a CM5 sensor chip via amine coupling, with unreacted sites blocked using ethanolamine (pH 8.5). The PROTAC molecules were injected at concentrations ranging from 0.38 µM to 12.50 µM in PBS-P running buffer (0.02 M phosphate buffer, 137 mM NaCl, 2.7 mM KCl, 0.2% DMSO, 0.05% P20, pH 7.4). Each injection lasted 120 s (association phase) followed by a 300-s dissociation phase at a flow rate of 30 μL/min. Data were analyzed using Biacore Insight Evaluation Software with a 1:1 binding model to determine KD values. In addition to the 1:1 Langmuir model, we tested bivalent-analyte and heterogeneous-ligand models. Both alternatives yielded substantially larger residuals and poorer overall fits, confirming the 1:1 Langmuir model as the most suitable for our sensorgram data.
(§4) To comprehensively assess the biological functionality of the PROTAC molecules, binding kinetics with the target proteins CCL5 and IL-6 were investigated using the Biacore 8K^+ system. CCL5 and IL-6—key inflammatory mediators—were immobilized on a CM5 sensor chip (9000 RU) via amine coupling, and kinetic parameters were calculated using a 1:1 binding model.

[3] = test system: inflammatory cytokines (IL-1β and TNF-α), PBMCs; experiment: LPS-induced cytokine secretion in PBMCs, cytokines overall; assay type: cell-based, Human; conditions: 100 nM-10 μM
Description: as §1, §2

CCL5 = target: T1, CCL5 (Homo sapiens, UniProt P13501); experiment: SPR binding to immobilized CCL5; conditions: for pKd: CM5 chip, 1:1 binding model, 0.38-12.50 µM analyte
T1 sequence (P13501 24-91): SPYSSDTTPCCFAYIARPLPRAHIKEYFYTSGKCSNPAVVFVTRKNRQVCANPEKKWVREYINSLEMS
Description: as §3, §4

[4] = test system: TNF-α release, peripheral blood mononuclear cells (PBMCs); experiment: LPS-induced TNF-α release in PBMCs (ELISA); assay type: cell-based, Human; conditions: 100 nM-10 μM
Description: as §1, §2

Chain of IL-6 (P05231 30-212, species assumed): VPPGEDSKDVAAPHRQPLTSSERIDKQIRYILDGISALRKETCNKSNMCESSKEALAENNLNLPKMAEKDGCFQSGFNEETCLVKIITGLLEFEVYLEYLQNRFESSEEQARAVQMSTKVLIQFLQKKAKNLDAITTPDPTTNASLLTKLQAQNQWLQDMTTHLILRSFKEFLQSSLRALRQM

pKd (IL-6)	pKd (CCL5)	binding to CCL5 (in words) (CCL5; negative control)	Structure (SMILES)	colonic TNF-α and IL-1β levels [1]	effect on LPS-induced IL-1β release (in words) [2]	effect on LPS-induced cytokine secretion (in words) [3]	effect on LPS-induced TNF-α (in words) [4]
5.81	4.95		CO[C@H]1O[C@H](COS(=O)(=O)O)[C@@H](O[C@@H]2O[C@@H](C(=O)NCCCCCNc3cccc4c3C(=O)N(C3CCC(=O)NC3=O)C4=O)[C@@H](OC3O[C@H](COS(=O)(=O)O)[C@@H](O[C@@H]4O[C@H](C(=O)NCCCCCNc5cccc6c5C(=O)N(C5CCC(=O)NC5=O)C6=O)[C@@H](O[C@H]5O[C@H](COS(=O)(=O)O)[C@@H](O)[C@H](O)[C@H]5NS(=O)(=O)O)[C@H](O)[C@H]4O)[C@H](OS(=O)(=O)O)[C@H]3NS(=O)(=O)O)[C@H](O)[C@H]2OS(=O)(=O)O)[C@H](O)[C@H]1NS(=O)(=O)O (some centres unmarked) [Product 10]		significantly inhibited	significant inhibitory effect; also recorded: concentration-dependent suppression	
5.08	5.32		CO[C@H]1O[C@H](COS(=O)(=O)O)[C@@H](O[C@@H]2O[C@@H](C(=O)NCCCCCCCNc3cccc4c3C(=O)N(C3CCC(=O)NC3=O)C4=O)[C@@H](OC3O[C@H](COS(=O)(=O)O)[C@@H](O[C@@H]4O[C@H](C(=O)NCCCCCCCNc5cccc6c5C(=O)N(C5CCC(=O)NC5=O)C6=O)[C@@H](O[C@H]5O[C@H](COS(=O)(=O)O)[C@@H](O)[C@H](O)[C@H]5NS(=O)(=O)O)[C@H](O)[C@H]4O)[C@H](OS(=O)(=O)O)[C@H]3NS(=O)(=O)O)[C@H](O)[C@H]2OS(=O)(=O)O)[C@H](O)[C@H]1NS(=O)(=O)O (some centres unmarked) [Product 6]		significantly inhibited	significant inhibition; also recorded: concentration-dependent suppression	

More lines, now with the values behind:

Structure (SMILES)	pKd (IL-6)	pKd (CCL5)	binding to CCL5 (in words) (CCL5; negative control)	colonic TNF-α and IL-1β levels [1]	effect on LPS-induced IL-1β release (in words) [2]	effect on LPS-induced cytokine secretion (in words) [3]	effect on LPS-induced TNF-α (in words) [4]
O=C(/C=C/C(=O)Nc1ccc(NC(=O)c2ccc([N+](=O)[O-])o2)cc1)NCCCCCCNc1cccc2c1C(=O)N(C1CCC(=O)NC1=O)C2=O (centres unmarked) [SP23]				reduced			
CO[C@H]1O[C@H](COS(=O)(=O)O)[C@@H](O[C@@H]2O[C@@H](C(=O)NCCCCCc3cccc4c3CN(C3CCC(=O)NC3=O)C4=O)[C@@H](OC3O[C@H](COS(=O)(=O)O)[C@@H](O[C@@H]4O[C@H](C(=O)NCCCCCc5cccc6c5CN(C5CCC(=O)NC5=O)C6=O)[C@@H](O[C@H]5O[C@H](COS(=O)(=O)O)[C@@H](O)[C@H](O)[C@H]5NS(=O)(=O)O)[C@H](O)[C@H]4O)[C@H](OS(=O)(=O)O)[C@H]3NS(=O)(=O)O)[C@H](O)[C@H]2OS(=O)(=O)O)[C@H](O)[C@H]1NS(=O)(=O)O (some centres unmarked) [Product 8]		5.02			no significant effect; also recorded: not statistically significant	did not elicit significant changes; also recorded: limited anti-inflammatory activity	mild inhibition; also recorded: minimal
CO[C@H]1O[C@H](COS(=O)(=O)O)[C@@H](O[C@@H]2O[C@@H](C(=O)O)[C@@H](O[C@H]3O[C@H](COS(=O)(=O)O)[C@@H](O[C@@H]4O[C@H](C(=O)O)[C@@H](O[C@H]5O[C@H](COS(=O)(=O)O)[C@@H](O)[C@H](O)[C@H]5NS(=O)(=O)O)[C@H](O)[C@H]4O)[C@H](OS(=O)(=O)O)[C@H]3NS(=O)(=O)O)[C@H](O)[C@H]2OS(=O)(=O)O)[C@H](O)[C@H]1NS(=O)(=O)O [FS, Fondaparinux Sodium]	4.87		no binding		no effect	did not elicit significant changes	
